Measurements published in patent publication US20090318530A1, “PHARMACEUTICAL COMPOSITIONS COMPRISING NK1 RECEPTOR ANTAGONISTS AND SODIUM CHANNEL BLOCKERS” (GLAXO GROUP LIMITED, priority 2007, published 2009).
Read-outs that look alike come from different tables or passages of the source.

Assays:
[1] = Blood and brain drug concentrations in satellite animals; assay type: in vivo; conditions: rat; for concentration at 60 min / concentration at 30 min: CD; for concentration at 60 min: intraperitoneal; for concentration at 30 min: subcutaneous
Description: […] Blood and brain samples were taken for analysis of the drug concentrations in these compartments.
All doses were calculated as base. ENa8 was dosed via the subcutaneous (s.c.) route at 1 ml/kg in a 2% v/v DMSO/saline vehicle 30 minutes prior to test. Compound ENK6 was dosed with via the intraperitoneal (i.p.) route 60 minutes before the test. ENK6 was dissolved in saline.

[2] = system: threshold for tonic hindlimb extensor seizures; assay: Maximal electroshock seizure threshold (MEST) test, 'up and down' method; assay type: in vivo, rat; conditions: male CD rats
Description: This work was conducted in compliance with the Home Office Guidance on the operation of the Animals (Scientific Procedures) Act 1986 and GlaxoSmithKline ethical standards. Male CD rats (100-145 g) were supplied by Charles River, UK. Animals were group housed (6 animal per cage) with free access to food (Standard rodent chow; Harlan, UK) and water under a 12 h light/dark cycle (lights on at 0700 h). A period of at least one week between arrival at GSK and the study was allowed in all cases.
Animals were administered a test compound at the appropriate dose, route and pre-treatment time and returned to their home cage. Testing occurred in a separate room from that used for housing. […] Seizure threshold was determined using the ‘up and down’ method of Kimball et al. (1957)(Kimball A W, Burnett W T Jr, Doherty D G. (1957) Radiat Res. 7(1):1-12). […]
All doses were calculated as base. […]
Induction of seizure is measured as an all-or-nothing effect scored as either present (+) or absent (0) for each animal. […] Drug effects were calculated as the % change in CC50. Significant differences between drug-treated animals and appropriate vehicle treated groups were assessed according to the methods of Litchfield and Wilcoxon (1949). The statistical significance of differences between (5R)-5-(4-{[(2-fluorophenyl)methyl]oxy}phenyl)-L-prolinamide or in combination with ENK6 was assessed using a Student's t test.

Row | concentration at 60 min ([1]; brain, 30 mg/kg, ENK6 30 mg/kg, ENa8 veh, rat satellite animal n=1, read-out: Brain ENK6) [ng/g] | concentration at 60 min ([1]; brain, ENK6 30 mg/kg + ENa8 1 mg/kg, rat satellite animals n=2, read-out: Brain ENK6) [ng/g] | concentration at 60 min ([1]; brain, ENK6 30 mg/kg + ENa8 3 mg/kg, rat satellite animals n=2, read-out: Brain ENK6) [ng/g] | concentration at 60 min ([1]; whole blood, 30 mg/kg, ENK6 30 mg/kg, ENa8 veh, rat satellite animal n=1, read-out: Blood ENK6) [ng/mL] | concentration at 60 min ([1]; whole blood, ENK6 30 mg/kg + ENa8 1 mg/kg, rat satellite animals n=2, read-out: Blood ENK6) [ng/mL] | concentration at 60 min ([1]; whole blood, ENK6 30 mg/kg + ENa8 3 mg/kg, rat satellite animals n=2, read-out: Blood ENK6) [ng/mL] | concentration at 30 min ([1]; brain, 1 mg/kg, ENa8 1 mg/kg, ENK6 veh, rat satellite animals n=2, read-out: Brain ENa8) [ng/g] | concentration at 30 min ([1]; brain, 3 mg/kg, ENa8 3 mg/kg, ENK6 veh, rat satellite animals n=2, read-out: Brain ENa8) [ng/g] | concentration at 30 min ([1]; brain, ENa8 1 mg/kg + ENK6 30 mg/kg, rat satellite animals n=2, read-out: Brain ENa8) [ng/g] | concentration at 30 min ([1]; brain, ENa8 3 mg/kg + ENK6 30 mg/kg, rat satellite animals n=2, read-out: Brain ENa8) [ng/g] | concentration at 30 min ([1]; whole blood, 1 mg/kg, ENa8 1 mg/kg, ENK6 veh, rat satellite animals n=2, read-out: Blood ENa8) [ng/mL] | concentration at 30 min ([1]; whole blood, 3 mg/kg, ENa8 3 mg/kg, ENK6 veh, rat satellite animals n=2, read-out: Blood ENa8) [ng/mL] | concentration at 30 min ([1]; whole blood, ENa8 1 mg/kg + ENK6 30 mg/kg, rat satellite animals n=2, read-out: Blood ENa8) [ng/mL] | concentration at 30 min ([1]; whole blood, ENa8 3 mg/kg + ENK6 30 mg/kg, rat satellite animals n=2, read-out: Blood ENa8) [ng/mL] | blood or brain concentration of ENa8 in the presence of ENK6 ([1]; ENa8 1 or 3 mg/kg s.c. with ENK6 30 mg/kg i.p. versus ENa8 alone) | SMILES | seizure threshold in the MEST ([2]; ENK6 30 mg/kg i.p. alone, 60 min before test) | seizure threshold in the MEST ([2]; ENa8 3 mg/kg s.c. alone, 30 min prior to test)
1 | 1510 | 1160 | 881 | 631 | 471 | 414 | – | – | – | – | – | – | – | – | – | COc1ccc(-n2nnnc2C(F)(F)F)cc1CN[C@H]1CCCN[C@H]1c1ccccc1.Cl.Cl [ENK6, [2-Methoxy-5-(5-trifluoromethyl-tetrazol-1-yl)-benzyl]-([2S,3S]-2-phenyl-piperidin-3-yl)-amine dihydrochloride] | no effect | –
2 | – | – | – | – | – | – | 1170 | 2300 | 1340 | 2620 | 188 | 349 | 246 | 456 | No increase | Cl.NC(=O)[C@@H]1CC[C@H](c2ccc(OCc3ccccc3F)cc2)N1 [ENa8, (5R)-5-(4-{[(2-fluorophenyl)methyl}oxy]phenyl)-L-prolinamide hydrochloride] | – | small, but significant increase
